According to ChEMBL document CHEMBL1145498, “A systematic interaction map of validated kinase inhibitors with Ser/Thr kinases” (Proc Natl Acad Sci U S A, 2007):

biological target: Calcium/calmodulin-dependent protein kinase type 1D (Homo sapiens) (UniProt Q8IU85)
Sequence (Q8IU85 whole entry, looked up): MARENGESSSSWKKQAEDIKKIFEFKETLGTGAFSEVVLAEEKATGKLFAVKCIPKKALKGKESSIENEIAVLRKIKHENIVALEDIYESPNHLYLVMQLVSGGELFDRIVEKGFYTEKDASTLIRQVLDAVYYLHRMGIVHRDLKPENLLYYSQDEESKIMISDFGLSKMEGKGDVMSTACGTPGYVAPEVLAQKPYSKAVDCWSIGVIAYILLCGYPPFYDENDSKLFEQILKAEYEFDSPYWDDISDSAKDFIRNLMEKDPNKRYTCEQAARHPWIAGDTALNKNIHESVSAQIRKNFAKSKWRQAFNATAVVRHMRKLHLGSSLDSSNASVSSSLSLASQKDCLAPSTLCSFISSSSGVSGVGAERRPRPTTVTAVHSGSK

| ΔTm [°C] | Compound |
| --- | --- |
| 0.1 | O=C1Nc2ccc(I)cc2/C1=C1/Nc2ccccc2/C1=N\O |
| 0.6 | Nc1cc2ncnc(Nc3cccc(Br)c3)c2cc1N |

| Compound | ΔTm [°C] |
| --- | --- |
| NC(=O)c1ccc(-c2nc(-c3ccc4c(c3)OCCO4)c(-c3ccccn3)[nH]2)cc1 | 0 |

biological target: Calcium/calmodulin-dependent protein kinase type II subunit delta (Homo sapiens) (UniProt Q13557)
Sequence (Q13557 whole entry): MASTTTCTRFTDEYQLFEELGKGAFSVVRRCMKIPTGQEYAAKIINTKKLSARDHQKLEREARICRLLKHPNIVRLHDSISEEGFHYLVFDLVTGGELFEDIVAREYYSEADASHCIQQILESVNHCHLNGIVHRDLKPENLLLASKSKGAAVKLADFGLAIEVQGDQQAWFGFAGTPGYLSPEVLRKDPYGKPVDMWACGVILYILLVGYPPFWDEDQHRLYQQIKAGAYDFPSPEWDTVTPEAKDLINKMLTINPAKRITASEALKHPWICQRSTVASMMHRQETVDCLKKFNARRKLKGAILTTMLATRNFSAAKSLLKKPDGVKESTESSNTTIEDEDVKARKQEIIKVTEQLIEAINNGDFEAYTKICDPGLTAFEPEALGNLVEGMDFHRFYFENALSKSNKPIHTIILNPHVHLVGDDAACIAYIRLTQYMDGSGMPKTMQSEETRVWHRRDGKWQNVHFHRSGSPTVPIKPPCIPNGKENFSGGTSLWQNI

| ΔTm [°C] | Compound |
| --- | --- |
| 3.6 | O=C1Nc2ccc(I)cc2/C1=C1/Nc2ccccc2/C1=N\O |
| -1.6 | Nc1cc2ncnc(Nc3cccc(Br)c3)c2cc1N |

| Compound | ΔTm [°C] |
| --- | --- |
| NC(=O)c1ccc(-c2nc(-c3ccc4c(c3)OCCO4)c(-c3ccccn3)[nH]2)cc1 | 0.3 |

biological target: Calcium/calmodulin-dependent protein kinase type II subunit gamma (Homo sapiens) (UniProt Q13555)
Sequence (Q13555 whole entry): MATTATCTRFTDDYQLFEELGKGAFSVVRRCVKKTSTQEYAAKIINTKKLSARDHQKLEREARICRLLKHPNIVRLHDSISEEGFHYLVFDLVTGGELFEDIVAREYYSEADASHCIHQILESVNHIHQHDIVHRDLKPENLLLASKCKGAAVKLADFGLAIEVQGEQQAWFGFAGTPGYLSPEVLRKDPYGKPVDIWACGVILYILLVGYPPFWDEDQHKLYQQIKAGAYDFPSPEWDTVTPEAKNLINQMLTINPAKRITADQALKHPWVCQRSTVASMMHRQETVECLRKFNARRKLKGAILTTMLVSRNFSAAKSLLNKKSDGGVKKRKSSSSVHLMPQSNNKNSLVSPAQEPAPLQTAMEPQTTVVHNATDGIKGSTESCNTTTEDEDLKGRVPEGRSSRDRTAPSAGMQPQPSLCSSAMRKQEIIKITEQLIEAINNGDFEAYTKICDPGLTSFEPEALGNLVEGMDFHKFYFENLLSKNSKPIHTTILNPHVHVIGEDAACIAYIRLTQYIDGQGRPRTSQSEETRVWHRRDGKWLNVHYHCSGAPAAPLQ

| ΔTm [°C] | Compound |
| --- | --- |
| 5.4 | O=C1Nc2ccc(I)cc2/C1=C1/Nc2ccccc2/C1=N\O |
| -0.1 | Nc1cc2ncnc(Nc3cccc(Br)c3)c2cc1N |

| Compound | ΔTm [°C] |
| --- | --- |
| NC(=O)c1ccc(-c2nc(-c3ccc4c(c3)OCCO4)c(-c3ccccn3)[nH]2)cc1 | 0.3 |

biological target: Cyclin-dependent kinase 2 (Homo sapiens, UniProt P24941)

| ΔTm [°C] | Compound |
| --- | --- |
| 6.8 | O=C1Nc2ccc(I)cc2/C1=C1/Nc2ccccc2/C1=N\O |
| 1.4 | Nc1cc2ncnc(Nc3cccc(Br)c3)c2cc1N |

| Compound | ΔTm [°C] |
| --- | --- |
| NC(=O)c1ccc(-c2nc(-c3ccc4c(c3)OCCO4)c(-c3ccccn3)[nH]2)cc1 | 0.6 |

biological target: Dual specificity protein kinase CLK2 (Homo sapiens) (UniProt P49760)
Sequence (P49760 whole entry, looked up): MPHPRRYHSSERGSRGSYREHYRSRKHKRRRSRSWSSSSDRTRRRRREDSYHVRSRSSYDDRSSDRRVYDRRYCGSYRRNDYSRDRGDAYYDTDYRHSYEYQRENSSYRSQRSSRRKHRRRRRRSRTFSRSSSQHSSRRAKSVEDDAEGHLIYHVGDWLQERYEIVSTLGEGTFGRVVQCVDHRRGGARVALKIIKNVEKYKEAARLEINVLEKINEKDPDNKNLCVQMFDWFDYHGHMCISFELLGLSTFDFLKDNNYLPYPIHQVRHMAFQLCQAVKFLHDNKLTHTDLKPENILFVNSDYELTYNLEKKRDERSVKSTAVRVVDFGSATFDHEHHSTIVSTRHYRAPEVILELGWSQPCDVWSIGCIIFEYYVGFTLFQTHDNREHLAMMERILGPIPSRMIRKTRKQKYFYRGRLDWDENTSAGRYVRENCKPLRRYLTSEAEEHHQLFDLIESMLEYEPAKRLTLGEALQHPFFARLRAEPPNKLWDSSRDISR

| ΔTm [°C] | Compound |
| --- | --- |
| 2.9 | O=C1Nc2ccc(I)cc2/C1=C1/Nc2ccccc2/C1=N\O |
| 1.6 | Nc1cc2ncnc(Nc3cccc(Br)c3)c2cc1N |

| Compound | ΔTm [°C] |
| --- | --- |
| NC(=O)c1ccc(-c2nc(-c3ccc4c(c3)OCCO4)c(-c3ccccn3)[nH]2)cc1 | -0.3 |

biological target: Death-associated protein kinase 3 (Homo sapiens) (UniProt O43293)

| Compound | ΔTm [°C] |
| --- | --- |
| O=C1Nc2ccc(I)cc2/C1=C1/Nc2ccccc2/C1=N\O | 1.4 |
| NC(=O)c1ccc(-c2nc(-c3ccc4c(c3)OCCO4)c(-c3ccccn3)[nH]2)cc1 | -0.3 |
| Nc1cc2ncnc(Nc3cccc(Br)c3)c2cc1N | 2.1 |

biological target: T1, Myotonin-protein kinase (Homo sapiens) (UniProt Q09013)
T1 sequence (whole entry): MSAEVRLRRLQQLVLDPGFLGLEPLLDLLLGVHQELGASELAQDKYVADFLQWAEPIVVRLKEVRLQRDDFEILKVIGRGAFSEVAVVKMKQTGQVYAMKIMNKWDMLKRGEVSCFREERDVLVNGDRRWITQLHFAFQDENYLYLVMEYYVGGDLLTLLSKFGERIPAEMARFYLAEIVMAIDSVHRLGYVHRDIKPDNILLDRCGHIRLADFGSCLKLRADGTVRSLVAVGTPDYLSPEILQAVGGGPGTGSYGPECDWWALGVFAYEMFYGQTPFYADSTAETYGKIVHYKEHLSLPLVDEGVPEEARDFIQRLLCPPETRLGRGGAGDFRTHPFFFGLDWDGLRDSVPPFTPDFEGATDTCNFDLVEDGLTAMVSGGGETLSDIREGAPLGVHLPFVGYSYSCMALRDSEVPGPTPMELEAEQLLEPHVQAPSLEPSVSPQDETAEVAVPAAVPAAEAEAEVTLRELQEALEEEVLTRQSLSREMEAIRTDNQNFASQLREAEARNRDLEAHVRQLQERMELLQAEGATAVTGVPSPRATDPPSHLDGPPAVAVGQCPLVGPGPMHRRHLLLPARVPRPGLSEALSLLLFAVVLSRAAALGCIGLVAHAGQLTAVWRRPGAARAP

| ΔTm [°C] | Compound |
| --- | --- |
| 1 | O=C1Nc2ccc(I)cc2/C1=C1/Nc2ccccc2/C1=N\O |
| 0.1 | Nc1cc2ncnc(Nc3cccc(Br)c3)c2cc1N |

| Compound | ΔTm [°C] |
| --- | --- |
| NC(=O)c1ccc(-c2nc(-c3ccc4c(c3)OCCO4)c(-c3ccccn3)[nH]2)cc1 | 0.8 |

biological target: Dual specificity mitogen-activated protein kinase kinase 2 (Homo sapiens, UniProt P36507)

| ΔTm [°C] | Compound |
| --- | --- |
| 6.4 | O=C1Nc2ccc(I)cc2/C1=C1/Nc2ccccc2/C1=N\O |
| 1.2 | Nc1cc2ncnc(Nc3cccc(Br)c3)c2cc1N |

| Compound | ΔTm [°C] |
| --- | --- |
| NC(=O)c1ccc(-c2nc(-c3ccc4c(c3)OCCO4)c(-c3ccccn3)[nH]2)cc1 | -0.1 |

biological target: Mitogen-activated protein kinase 11 (Homo sapiens, UniProt Q15759)
Sequence (Q15759 whole entry): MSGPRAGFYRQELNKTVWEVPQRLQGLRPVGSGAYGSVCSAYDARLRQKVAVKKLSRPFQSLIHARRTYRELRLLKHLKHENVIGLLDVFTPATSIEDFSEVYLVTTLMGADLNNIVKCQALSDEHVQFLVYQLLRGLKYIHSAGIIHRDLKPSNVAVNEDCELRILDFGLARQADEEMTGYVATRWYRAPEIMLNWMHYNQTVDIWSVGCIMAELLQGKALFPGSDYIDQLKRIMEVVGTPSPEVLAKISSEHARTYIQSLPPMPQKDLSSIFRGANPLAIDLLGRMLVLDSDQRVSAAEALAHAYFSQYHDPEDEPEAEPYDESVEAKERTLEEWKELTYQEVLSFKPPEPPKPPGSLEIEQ

| ΔTm [°C] | Compound |
| --- | --- |
| 1.3 | O=C1Nc2ccc(I)cc2/C1=C1/Nc2ccccc2/C1=N\O |
| 2.5 | Nc1cc2ncnc(Nc3cccc(Br)c3)c2cc1N |

| Compound | ΔTm [°C] |
| --- | --- |
| NC(=O)c1ccc(-c2nc(-c3ccc4c(c3)OCCO4)c(-c3ccccn3)[nH]2)cc1 | -0.1 |

biological target: Serine/threonine-protein kinase 26 (Homo sapiens) (UniProt Q9P289)
Sequence (Q9P289 2-416 limits assumed): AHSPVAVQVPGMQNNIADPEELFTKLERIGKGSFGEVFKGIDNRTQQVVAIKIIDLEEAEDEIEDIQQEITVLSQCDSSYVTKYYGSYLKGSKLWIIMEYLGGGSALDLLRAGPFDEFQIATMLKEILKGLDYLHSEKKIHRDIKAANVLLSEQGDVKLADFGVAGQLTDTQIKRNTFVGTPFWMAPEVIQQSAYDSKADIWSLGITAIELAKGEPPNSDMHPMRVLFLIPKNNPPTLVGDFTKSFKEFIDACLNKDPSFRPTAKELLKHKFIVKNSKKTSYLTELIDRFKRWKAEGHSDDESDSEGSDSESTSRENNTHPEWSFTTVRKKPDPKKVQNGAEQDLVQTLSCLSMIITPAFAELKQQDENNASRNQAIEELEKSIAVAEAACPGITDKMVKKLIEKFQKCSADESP

| ΔTm [°C] | Compound |
| --- | --- |
| 4.5 | O=C1Nc2ccc(I)cc2/C1=C1/Nc2ccccc2/C1=N\O |
| 3.6 | Nc1cc2ncnc(Nc3cccc(Br)c3)c2cc1N |

| Compound | ΔTm [°C] |
| --- | --- |
| NC(=O)c1ccc(-c2nc(-c3ccc4c(c3)OCCO4)c(-c3ccccn3)[nH]2)cc1 | -1.1 |

biological target: Serine/threonine-protein kinase OSR1 (Homo sapiens) (UniProt O95747)
Sequence (O95747 2-527 limits assumed): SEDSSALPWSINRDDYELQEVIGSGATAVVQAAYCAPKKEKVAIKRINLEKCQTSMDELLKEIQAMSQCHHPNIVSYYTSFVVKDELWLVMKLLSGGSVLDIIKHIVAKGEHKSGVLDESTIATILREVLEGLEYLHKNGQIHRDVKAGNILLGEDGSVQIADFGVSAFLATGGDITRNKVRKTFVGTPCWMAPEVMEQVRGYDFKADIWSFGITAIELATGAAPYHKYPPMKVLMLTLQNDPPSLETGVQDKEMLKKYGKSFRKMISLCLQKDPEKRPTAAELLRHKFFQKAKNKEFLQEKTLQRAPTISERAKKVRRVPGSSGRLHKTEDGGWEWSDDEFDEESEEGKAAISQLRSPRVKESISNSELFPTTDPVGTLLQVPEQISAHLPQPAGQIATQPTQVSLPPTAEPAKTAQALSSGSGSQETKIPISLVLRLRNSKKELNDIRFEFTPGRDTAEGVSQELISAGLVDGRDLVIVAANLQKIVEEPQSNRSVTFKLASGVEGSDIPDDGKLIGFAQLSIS

| ΔTm [°C] | Compound |
| --- | --- |
| -1.3 | O=C1Nc2ccc(I)cc2/C1=C1/Nc2ccccc2/C1=N\O |
| 1 | Nc1cc2ncnc(Nc3cccc(Br)c3)c2cc1N |

| Compound | ΔTm [°C] |
| --- | --- |
| NC(=O)c1ccc(-c2nc(-c3ccc4c(c3)OCCO4)c(-c3ccccn3)[nH]2)cc1 | -0.1 |

biological target: Serine/threonine-protein kinase PAK 5 (Homo sapiens) (UniProt Q9P286)
Sequence (Q9P286 whole entry, looked up): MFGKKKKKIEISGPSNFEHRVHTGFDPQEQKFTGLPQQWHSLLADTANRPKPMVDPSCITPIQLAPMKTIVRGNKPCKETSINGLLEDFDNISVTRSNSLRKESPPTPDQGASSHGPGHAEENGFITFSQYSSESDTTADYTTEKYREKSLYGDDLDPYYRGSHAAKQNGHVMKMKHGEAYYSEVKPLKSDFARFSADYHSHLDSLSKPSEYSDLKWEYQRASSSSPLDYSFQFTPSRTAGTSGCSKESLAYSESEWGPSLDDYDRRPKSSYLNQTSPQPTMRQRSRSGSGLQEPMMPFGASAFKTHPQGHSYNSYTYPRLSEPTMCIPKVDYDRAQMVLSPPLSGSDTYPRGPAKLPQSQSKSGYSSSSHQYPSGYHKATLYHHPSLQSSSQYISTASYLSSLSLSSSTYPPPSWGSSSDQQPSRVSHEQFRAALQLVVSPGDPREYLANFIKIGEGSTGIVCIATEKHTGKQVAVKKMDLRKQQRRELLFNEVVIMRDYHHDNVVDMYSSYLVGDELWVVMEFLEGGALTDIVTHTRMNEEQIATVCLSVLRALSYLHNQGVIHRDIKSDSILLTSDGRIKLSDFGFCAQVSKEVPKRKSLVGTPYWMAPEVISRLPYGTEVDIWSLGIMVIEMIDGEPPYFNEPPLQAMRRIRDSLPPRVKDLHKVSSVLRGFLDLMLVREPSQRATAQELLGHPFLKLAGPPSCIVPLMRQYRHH

| ΔTm [°C] | Compound |
| --- | --- |
| 1.3 | O=C1Nc2ccc(I)cc2/C1=C1/Nc2ccccc2/C1=N\O |
| 0.2 | Nc1cc2ncnc(Nc3cccc(Br)c3)c2cc1N |

| Compound | ΔTm [°C] |
| --- | --- |
| NC(=O)c1ccc(-c2nc(-c3ccc4c(c3)OCCO4)c(-c3ccccn3)[nH]2)cc1 | 0.4 |

biological target: Serine/threonine-protein kinase pim-1 (Homo sapiens) (UniProt P11309)
Sequence (P11309 whole entry, looked up): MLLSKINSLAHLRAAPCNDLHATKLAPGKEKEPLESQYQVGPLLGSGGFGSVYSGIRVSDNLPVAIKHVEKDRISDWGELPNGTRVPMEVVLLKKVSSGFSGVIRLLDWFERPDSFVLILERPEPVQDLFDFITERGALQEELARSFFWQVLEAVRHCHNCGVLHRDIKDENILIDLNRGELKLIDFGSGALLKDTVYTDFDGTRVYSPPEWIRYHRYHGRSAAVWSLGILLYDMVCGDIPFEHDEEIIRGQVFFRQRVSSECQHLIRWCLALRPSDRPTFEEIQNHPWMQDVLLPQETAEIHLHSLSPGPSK

| ΔTm [°C] | Compound |
| --- | --- |
| 1.7 | O=C1Nc2ccc(I)cc2/C1=C1/Nc2ccccc2/C1=N\O |
| 3.4 | Nc1cc2ncnc(Nc3cccc(Br)c3)c2cc1N |

| Compound | ΔTm [°C] |
| --- | --- |
| NC(=O)c1ccc(-c2nc(-c3ccc4c(c3)OCCO4)c(-c3ccccn3)[nH]2)cc1 | -0.5 |

biological target: Serine/threonine-protein kinase pim-2 (Homo sapiens, UniProt Q9P1W9)
Sequence (Q9P1W9 whole entry, looked up): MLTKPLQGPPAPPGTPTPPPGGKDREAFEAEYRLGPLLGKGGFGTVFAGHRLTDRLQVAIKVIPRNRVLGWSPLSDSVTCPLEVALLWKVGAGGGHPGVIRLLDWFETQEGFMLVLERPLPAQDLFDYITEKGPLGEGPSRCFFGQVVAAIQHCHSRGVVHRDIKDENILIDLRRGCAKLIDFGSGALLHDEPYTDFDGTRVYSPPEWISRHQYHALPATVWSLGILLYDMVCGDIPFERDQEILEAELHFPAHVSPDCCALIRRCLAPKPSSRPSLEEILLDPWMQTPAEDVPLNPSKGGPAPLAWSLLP

| ΔTm [°C] | Compound |
| --- | --- |
| -0.5 | O=C1Nc2ccc(I)cc2/C1=C1/Nc2ccccc2/C1=N\O |
| 2.6 | Nc1cc2ncnc(Nc3cccc(Br)c3)c2cc1N |

| Compound | ΔTm [°C] |
| --- | --- |
| NC(=O)c1ccc(-c2nc(-c3ccc4c(c3)OCCO4)c(-c3ccccn3)[nH]2)cc1 | -0.2 |

biological target: Serine/threonine-protein kinase pim-3 (Homo sapiens) (UniProt Q86V86)

| ΔTm [°C] | Compound |
| --- | --- |
| 6.3 | O=C1Nc2ccc(I)cc2/C1=C1/Nc2ccccc2/C1=N\O |
| 3.2 | Nc1cc2ncnc(Nc3cccc(Br)c3)c2cc1N |

| Compound | ΔTm [°C] |
| --- | --- |
| NC(=O)c1ccc(-c2nc(-c3ccc4c(c3)OCCO4)c(-c3ccccn3)[nH]2)cc1 | 0.4 |

biological target: Ribosomal protein S6 kinase alpha-3 (Homo sapiens) (UniProt P51812)

| ΔTm [°C] | Compound |
| --- | --- |
| 3.3 | O=C1Nc2ccc(I)cc2/C1=C1/Nc2ccccc2/C1=N\O |
| 0.5 | Nc1cc2ncnc(Nc3cccc(Br)c3)c2cc1N |

| Compound | ΔTm [°C] |
| --- | --- |
| NC(=O)c1ccc(-c2nc(-c3ccc4c(c3)OCCO4)c(-c3ccccn3)[nH]2)cc1 | 0 |

biological target: T2, Serine/threonine-protein kinase 17A (Homo sapiens) (UniProt Q9UEE5)
T2 sequence (whole entry): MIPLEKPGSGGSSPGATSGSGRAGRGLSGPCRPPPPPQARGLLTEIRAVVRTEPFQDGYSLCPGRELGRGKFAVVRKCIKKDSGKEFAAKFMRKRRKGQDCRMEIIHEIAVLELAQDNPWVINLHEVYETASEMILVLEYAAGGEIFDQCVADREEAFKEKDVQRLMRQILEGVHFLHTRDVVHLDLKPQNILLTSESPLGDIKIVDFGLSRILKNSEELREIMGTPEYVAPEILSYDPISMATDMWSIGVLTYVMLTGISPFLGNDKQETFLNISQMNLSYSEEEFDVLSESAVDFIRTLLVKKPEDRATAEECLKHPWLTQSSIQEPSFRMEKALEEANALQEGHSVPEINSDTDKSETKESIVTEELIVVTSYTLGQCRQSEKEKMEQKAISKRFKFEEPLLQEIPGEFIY

| ΔTm [°C] | Compound |
| --- | --- |
| 7 | O=C1Nc2ccc(I)cc2/C1=C1/Nc2ccccc2/C1=N\O |
| 7.7 | Nc1cc2ncnc(Nc3cccc(Br)c3)c2cc1N |

| Compound | ΔTm [°C] |
| --- | --- |
| NC(=O)c1ccc(-c2nc(-c3ccc4c(c3)OCCO4)c(-c3ccccn3)[nH]2)cc1 | -0.3 |

biological target: Serine/threonine-protein kinase 26 (Homo sapiens) (UniProt Q9P289); remark: another data set of the same source

| ΔTm [°C] | Compound |
| --- | --- |
| 0 | O=C1Nc2ccc(I)cc2/C1=C1/Nc2ccccc2/C1=N\O |
| 4.2 | Nc1cc2ncnc(Nc3cccc(Br)c3)c2cc1N |

| Compound | ΔTm [°C] |
| --- | --- |
| NC(=O)c1ccc(-c2nc(-c3ccc4c(c3)OCCO4)c(-c3ccccn3)[nH]2)cc1 | -0.2 |

biological target: T3, Lymphokine-activated killer T-cell-originated protein kinase (Homo sapiens) (UniProt Q96KB5)
T3 sequence (whole entry): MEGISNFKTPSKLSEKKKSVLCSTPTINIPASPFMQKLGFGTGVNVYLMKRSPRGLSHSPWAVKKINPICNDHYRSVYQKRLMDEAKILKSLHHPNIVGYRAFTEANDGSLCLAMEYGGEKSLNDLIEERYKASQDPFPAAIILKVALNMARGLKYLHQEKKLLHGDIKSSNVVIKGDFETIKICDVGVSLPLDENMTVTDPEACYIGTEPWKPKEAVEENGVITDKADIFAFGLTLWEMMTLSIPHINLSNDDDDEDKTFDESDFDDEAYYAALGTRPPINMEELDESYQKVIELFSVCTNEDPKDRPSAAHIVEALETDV

| Compound | ΔTm [°C] |
| --- | --- |
| O=C1Nc2ccc(I)cc2/C1=C1/Nc2ccccc2/C1=N\O | -2.4 |
| NC(=O)c1ccc(-c2nc(-c3ccc4c(c3)OCCO4)c(-c3ccccn3)[nH]2)cc1 | -1.4 |
| Nc1cc2ncnc(Nc3cccc(Br)c3)c2cc1N | -0.2 |

biological target: T4, Serine/threonine-protein kinase VRK1 (Homo sapiens) (UniProt Q99986)
T4 sequence (whole entry): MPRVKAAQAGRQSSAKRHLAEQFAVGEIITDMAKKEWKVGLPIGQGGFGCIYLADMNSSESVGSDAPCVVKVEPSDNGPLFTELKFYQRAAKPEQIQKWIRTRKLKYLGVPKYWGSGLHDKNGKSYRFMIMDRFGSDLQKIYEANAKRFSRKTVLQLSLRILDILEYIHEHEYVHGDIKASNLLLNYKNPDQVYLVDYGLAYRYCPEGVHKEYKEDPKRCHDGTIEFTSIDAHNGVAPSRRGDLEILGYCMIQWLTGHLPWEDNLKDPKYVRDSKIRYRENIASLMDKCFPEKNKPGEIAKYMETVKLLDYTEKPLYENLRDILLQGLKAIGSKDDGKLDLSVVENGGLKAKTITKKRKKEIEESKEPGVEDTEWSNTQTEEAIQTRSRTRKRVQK

| ΔTm [°C] | Compound |
| --- | --- |
| 0.1 | O=C1Nc2ccc(I)cc2/C1=C1/Nc2ccccc2/C1=N\O |
| -0.3 | Nc1cc2ncnc(Nc3cccc(Br)c3)c2cc1N |

| Compound | ΔTm [°C] |
| --- | --- |
| NC(=O)c1ccc(-c2nc(-c3ccc4c(c3)OCCO4)c(-c3ccccn3)[nH]2)cc1 | 0.7 |

biological target: Serine/threonine-protein kinase 25 (Homo sapiens) (UniProt O00506)

| ΔTm [°C] | Compound |
| --- | --- |
| 3.2 | O=C1Nc2ccc(I)cc2/C1=C1/Nc2ccccc2/C1=N\O |
| 2.5 | Nc1cc2ncnc(Nc3cccc(Br)c3)c2cc1N |

| Compound | ΔTm [°C] |
| --- | --- |
| NC(=O)c1ccc(-c2nc(-c3ccc4c(c3)OCCO4)c(-c3ccccn3)[nH]2)cc1 | 0 |
